Experimental data published in patent US20100069421A1, “COMPOSITIONS AND METHODS FOR THE TREATMENT OF RADIATION PROCTOSIGMOITIS” (priority 2006, published 2010).

Test system: patient experiencing radiation induced enteritis
Assay: Administration of rifaximin to a patient experiencing radiation induced enteritis
Format: in vivo, human
Details: no data shown
Text: The recognition of bacteria as primarily causative of the symptomatology seen in cancer patients represents a paradigm shift in that bacterial colonization, overgrowth, and/or invasion are a potentially curable or controllable source of a patient's discomfort. Furthermore, this represents a paradigm shift in that prior measures commonly used in the amelioration of such problems were supportive in nature, addressing the symptoms of these conditions and not the root cause itself. This permits greater targeting of the symptoms' cause and results in improved efficacy of symptom amelioration, while at the same time causing fewer adverse effects, as would be commonly seen with supportive measures such as traditional anti-diarrheals. […] Furthermore, it enables the physician to treat the cause of the symptoms in such a way that suboptimally effective supportive measures can not. This is seen in terms of greater targeting of therapy, fewer drug interactions, and improved tolerance to therapy. Particular benefit is seen with this therapy because it may prevent or ameliorate symptoms that would otherwise necessitate a break in treatment to allow the patient to recover from their symptoms. […]

SMILES: CO[C@H]1/C=C/O[C@@]2(C)Oc3c(C)c(O)c4c(O)c(c5c(nc6cc(C)ccn65)c4c3C2=O)NC(=O)/C(C)=C\C=C\[C@H](C)[C@H](O)[C@@H](C)[C@@H](O)[C@@H](C)[C@H](OC(C)=O)[C@@H]1C [Rifaximin]
- symptoms of radiation induced enteritis: reduces symptoms of the condition
